Values after ≈ are worked out from the molar mass of the structure shown. Read-outs that look alike come from different tables or passages of the source.
Assays:
[1] = MTT-based viability assay; format: cell-based; conditions: human, 72 h, read-out: Viability of MRC-5 cells (% of viable cells ± SD)
Experimental: MRC-5 human fibroblasts (ECACC) were cultured in MEME, Minimum Essential Medium Eagle (Merck) supplemented with 10% fetal bovine serum (Merck), 2 mM l-glutamine, antibiotics (100 U/mL penicillin, 100 μg/mL streptomycin, Merck) and 1% non-essential amino acids (Merck). Cells were grown in 75 cm^2 cell culture flasks (Sarstedt) in a humidified atmosphere of CO2/air (5/95%) at 37 °C. MTT-based viability assay was conducted as described previously. Optical densities were measured at 570 nm using a BioTek microplate reader. All measurements were carried out in three replicates, and the results were expressed as a percent of viable cells versus control cells.

[2] = test system: C. krusei ATCC 6258; test: antifungal activity (disc-diffusion, MIC, MFC); format: cell-based, Candida krusei; conditions: Pichia kudriavzevii, ATCC6258; fluconazole by Etest
Experimental: (§1) Direct antimicrobial activity against Gram-negative and Gram-positive bacterial strains, as well as against yeast, was examined as previously described by the disc-diffusion test, the MIC determination assay, the MBC (for bacteria), and the MFC (for yeasts) determination tests. All the above-mentioned tests were performed according to EUCAST [71, 72] and CLSI [73, 74, 75, 76, 77] recommendations. The following reference agents were used: nitrofurantoin (for Gram-negative rods), linezolid (for Gram-positive bacteria), and fluconazole (in the case of fungi). The new aromatic diboronic acids were dissolved in DMSO (Sigma, St. Louis, MO, USA). In the disc-diffusion test, the concentration of new agents was 0.4 mg per disc.

[3] = test system: E. coli 77 CMY-2-positive; test: combination disc test CDT-AmpC; format: cell-based; conditions: Escherichia coli; agent 0.3 mg per disc; read-out: Diameter of inhibition zone, CAZ-30 disc with agent
[4] = test system: K. pneumoniae ATCC BAA 1705 KPC-2-positive; test: combination disc test CDT-KPC; format: cell-based; conditions: Klebsiella pneumoniae, BAA1705; agent 0.3 mg per disc; read-out: Diameter of inhibition zone, MEM-10 disc with agent
[5] = test system: K. pneumoniae ATCC 700603 ESBL-positive; test: combination disc test CDT-ESBL; format: cell-based; conditions: Klebsiella pneumoniae, ATCC700603; agent 0.3 mg per disc; read-out: Diameter of inhibition zone, CAZ-30 disc with agent
[6] = test system: C. parapsilosis ATCC 22019; test: antifungal activity (disc-diffusion, MIC, MFC); format: cell-based, Candida parapsilosis; conditions: Lodderomyces parapsilosis, ATCC22019; fluconazole by Etest
Experimental: as §1

[7] = test system: E. faecium ATCC 6057; test: direct antimicrobial activity (disc-diffusion, MIC, MBC); format: cell-based; conditions: Enterococcus faecium, ATCC6057; for zone of inhibition at 0.4 mg/disc: 0.4 mg per disc, 9 mm disc (linezolid 0.03 mg, 6 mm disc), - no zone, read-out: Diameter of inhibition zone
Experimental: as §1

[8] = test system: E. faecalis ATCC 29212; test: as above; format: cell-based; conditions: Enterococcus faecalis, ATCC29212; for zone of inhibition at 0.4 mg/disc: 0.4 mg per disc, 9 mm disc (linezolid 0.03 mg, 6 mm disc), - no zone, read-out: Diameter of inhibition zone
Experimental: as §1

[9] = test system: S. aureus ATCC 6538P; test: as above; format: cell-based; conditions: Staphylococcus aureus, ATCC6538P; for zone of inhibition at 0.4 mg/disc: 0.4 mg per disc, 9 mm disc (linezolid 0.03 mg, 6 mm disc), - no zone, read-out: Diameter of inhibition zone
Experimental: as §1

[10] = test system: S. aureus ATCC 43300 MRSA; test: as above; format: cell-based; conditions: Staphylococcus aureus; for zone of inhibition at 0.4 mg/disc: 0.4 mg per disc, 9 mm disc (linezolid 0.03 mg, 6 mm disc), - no zone, read-out: Diameter of inhibition zone
Experimental: as §1

[11] = test system: S. epidermidis ATCC 12228; test: as above; format: cell-based; conditions: Staphylococcus epidermidis, ATCC12228; for zone of inhibition at 0.4 mg/disc: 0.4 mg per disc, 9 mm disc (linezolid 0.03 mg, 6 mm disc), - no zone, read-out: Diameter of inhibition zone
Experimental: as §1

[12] = test system: C. tropicalis IBA 171; test: antifungal activity (disc-diffusion, MIC, MFC); format: cell-based; conditions: Candida tropicalis, IBA171; fluconazole by Etest
Experimental: as §1

[13] = test system: C. albicans ATCC 90028; test: antifungal activity (disc-diffusion, MIC, MFC); format: cell-based; conditions: Candida albicans, ATCC90028; fluconazole by Etest
Experimental: as §1

[14] = test system: S. cerevisiae ATCC 9763; test: antifungal activity (disc-diffusion, MIC, MFC); format: cell-based; conditions: Saccharomyces cerevisiae, ATCC9763; fluconazole by Etest
Experimental: as §1

[15] = test system: C. tropicalis ATCC 750; test: antifungal activity (disc-diffusion, MIC, MFC); format: cell-based; conditions: Candida tropicalis, ATCC750; fluconazole by Etest
Experimental: as §1

[16] = test system: C. guilliermondii IBA 155; test: antifungal activity (disc-diffusion, MIC, MFC); format: cell-based, Candida guilliermondii; conditions: Meyerozyma guilliermondii, IBA155; fluconazole by Etest
Experimental: as §1

[17] = test system: P. aeruginosa MUW 700 cAmpC-positive; test: combination disc test CDT-AmpC; format: cell-based; conditions: Pseudomonas aeruginosa; agent 0.3 mg per disc; read-out: Diameter of inhibition zone, CAZ-30 disc with agent
[18] = test system: K. pneumoniae ATCC BAA-1705 KPC-2(+); test: MIC of tested agent alone, microdilution; format: cell-based; conditions: Klebsiella pneumoniae, ATCCBAA1705; read-out: MIC of agent alone
Experimental: (§2) To examine the ability of tested agents to inhibit various carbapenemases and AmpC-enzymes, their synergy with antibiotics against β-lactamase-producing strains was assessed by checkerboard microdilution assay, with slight modification. Checkerboards were prepared in microtiter plates, with seven two-fold dilutions of β-lactams (1–64 mg/L) in the rows and three two-fold dilutions of tested agents and PBA (4–16 mg/L) in the columns. Tested agents’ concentrations were limited to the concentrations at which the newest commercially available BLIs (vaborbactam, relebactam, and avibactam) are used in susceptibility testing. Plates were inoculated and incubated as in the MIC microdilution assay. Parallel, MICs of tested agents and PBA alone were determined by the microdilution assay. Following the incubation, antibiotic MICs in the presence of each agent’s concentration were determined. Moreover, for the first well without growth found in each checkerboard row and column along the growth/non-growth interface, the fractional inhibitory concentration index (FICI) was calculated using the formula below:FICI = [(MIC of antibiotic in combination)/(MIC of antibiotic alone)] + [(MIC of the tested agent in combination)/(MIC of tested agent alone)].

[19] = test system: P. aeruginosa MUW 700 AmpC(+); test: MIC of tested agent alone, microdilution; format: cell-based; conditions: Pseudomonas aeruginosa; read-out: MIC of agent alone
Experimental: as §2

[20] = test system: K. pneumoniae 83 KPC-3(+), CTX-M-3(+); test: MIC of tested agent alone, microdilution; format: cell-based; conditions: Klebsiella pneumoniae; read-out: MIC of agent alone
Experimental: as §2

[21] = test system: E. coli 77 CMY-2(+); test: MIC of tested agent alone, microdilution; format: cell-based; conditions: Escherichia coli; read-out: MIC of agent alone
Experimental: as §2

[22] = test system: E. coli 76 KPC-2(+); test: MIC of tested agent alone, microdilution; format: cell-based; conditions: Escherichia coli; read-out: MIC of agent alone
Experimental: as §2

[23] = test system: K. pneumoniae 81 KPC-3(+); test: MIC of tested agent alone, microdilution; format: cell-based; conditions: Klebsiella pneumoniae; read-out: MIC of agent alone
Experimental: as §2

[24] = test system: B. subtilis ATCC 6633; test: direct antimicrobial activity (disc-diffusion); format: cell-based; conditions: Bacillus subtilis, ATCC6633; 0.4 mg per disc, 9 mm disc (linezolid 0.03 mg, 6 mm disc); - no zone; read-out: Diameter of inhibition zone
Experimental: as §1

Row | Structure (SMILES) | viability at 72 h, 12.5 mg/L ([1]; MRC-5 human fibroblasts) [%] | viability at 72 h, 25 mg/L ([1]; MRC-5 human fibroblasts) [%] | viability at 72 h, 50 mg/L ([1]; MRC-5 human fibroblasts) [%] | MIC [2] [µg/mL] | zone of inhibition at 300 µg/disc [3] [mm] | zone of inhibition at 300 µg/disc [4] [mm] | zone of inhibition at 300 µg/disc [5] [mm] | MIC [6] [µg/mL] | MIC [7] [µg/mL] | MIC [8] [µg/mL] | MIC [9] [µg/mL] | MIC [10] [µg/mL] | MIC [11] [µg/mL] | MIC [12] [µg/mL] | MIC [13] [µg/mL] | MIC [14] [µg/mL] | MIC [15] [µg/mL] | MIC [16] [µg/mL] | zone of inhibition at 300 µg/disc [17] [mm] | zone of inhibition at 0.4 mg/disc [24] [mm] | other results
1 | OB(O)c1cc(B(O)O)cc(B(O)O)c1 [4a, benzene-1,3,5-triboronic acid] | 102 ± 6.9 | 84.4 ± 6.4 | 87.9 ± 8.5 | > 400 | 20 | 6 | 14 | > 400 | 400 (≈ 1910 µM) | > 400 | > 400 | > 400 | > 400 | > 400 | > 400 | > 400 | > 400 | > 400 | 16 |  | MIC [18]: > 400 µg/mL; MIC [19]: > 400 µg/mL; MIC [20]: > 400 µg/mL; MIC [21]: > 400 µg/mL; MIC [22]: > 400 µg/mL; MIC [23]: > 400 µg/mL
2 | OB(O)c1c(F)c(F)c(F)c(F)c1B(O)O [3d] | 91.3 ± 7.4 | 100 ± 7.7 | 77.7 ± 15.5 | 50 (≈ 210 µM) | 21 | 6 | 15 | > 400 | 200 (≈ 841 µM) | 200 (≈ 841 µM) | 200 (≈ 841 µM) | 400 (≈ 1680 µM) | 200 (≈ 841 µM) | > 400 | 100 (≈ 421 µM) | 200 (≈ 841 µM) | > 400 | 200 (≈ 841 µM) | 14 | 12 | zone of inhibition at 0.4 mg/disc [7]: 16 mm; zone of inhibition at 0.4 mg/disc [8]: 12 mm; zone of inhibition at 0.4 mg/disc [9]: 20 mm; zone of inhibition at 0.4 mg/disc [10]: 18 mm; zone of inhibition at 0.4 mg/disc [11]: 21 mm; MIC [18]: > 400 µg/mL; MIC [19]: > 400 µg/mL; MIC [20]: > 400 µg/mL; MIC [21]: > 400 µg/mL; MIC [22]: > 400 µg/mL; MIC [23]: > 400 µg/mL
3 | CC(=O)NC[C@H]1CN(c2ccc(N3CCOCC3)c(F)c2)C(=O)O1 [LIN, linezolid, reference compound] |  |  |  |  |  |  |  |  | 2 (≈ 5.93 µM) | 2 (≈ 5.93 µM) | 1 (≈ 2.96 µM) | 2 (≈ 5.93 µM) | 1 (≈ 2.96 µM) |  |  |  |  |  |  | 30 | MBC [7]: > 128 µg/mL; zone of inhibition at 0.4 mg/disc [7]: 14 mm; MBC [8]: > 128 µg/mL; zone of inhibition at 0.4 mg/disc [8]: 15 mm; MBC [9]: > 128 µg/mL; zone of inhibition at 0.4 mg/disc [9]: 25 mm; MBC [10]: > 128 µg/mL; zone of inhibition at 0.4 mg/disc [10]: 25 mm; MBC [11]: > 128 µg/mL; zone of inhibition at 0.4 mg/disc [11]: 26 mm
4 | C[Si](C)(C)c1cc(B(O)O)c([Si](C)(C)C)cc1B(O)O [1k] |  |  |  | > 100 |  |  |  | > 100 | 100 (≈ 322 µM) | > 100 | 100 (≈ 322 µM) | 100 (≈ 322 µM) | 100 (≈ 322 µM) | > 100 | > 100 | > 100 | > 100 | > 100 |  | 11 | viability at 72 h, 12.5 mg/L [1]: 84.3 ± 0.9%; viability at 72 h, 25 mg/L [1]: 74.2 ± 3.5%; viability at 72 h, 50 mg/L [1]: 28.9 ± 1%
5 | COc1c(B(O)O)cccc1B(O)O [2g] | 111 ± 9.7 | 117 ± 3.7 | 103 ± 5.1 | > 400 | 20 | 6 | 13 | > 400 | 400 (≈ 2040 µM) | > 400 | > 400 | > 400 | > 400 | > 400 | > 400 | > 400 | > 400 | > 400 | 19 |  | MIC [18]: > 400 µg/mL; MIC [19]: > 400 µg/mL; MIC [20]: > 400 µg/mL; MIC [21]: > 400 µg/mL; MIC [22]: > 400 µg/mL; MIC [23]: > 400 µg/mL
6 | OB(O)c1cc(C(F)(F)F)c(B(O)O)cc1C(F)(F)F [1h] | 101 ± 4.3 | 104 ± 5 | 98.8 ± 3.2 | > 400 |  |  |  | > 400 | 400 (≈ 1330 µM) | 400 (≈ 1330 µM) | 400 (≈ 1330 µM) | 400 (≈ 1330 µM) | 200 (≈ 663 µM) | > 400 | > 400 | > 400 | > 400 | > 400 |  | 12 | zone of inhibition at 0.4 mg/disc [9]: 13 mm; zone of inhibition at 0.4 mg/disc [10]: 14 mm

— paper PMC10648349, “Aromatic Diboronic Acids as Effective KPC/AmpC Inhibitors” (Molecules, 2023)
